Data published in US20020137929A1, “1 - (3-heterocyclylphenyl) isothiourea, -isourea, -guanidine and -amidine herbicidal agents” (Intellectual Property Department, BASF Aktiengesellschaft, priority 1998, published 2002).

Tests used:
CYPSE (Flatsedge) = test: Preemergence weed control under flooded paddy conditions; assay type: in vivo, Cyperus serotinus; settings: rated 3-4 weeks after treatment
Outline: (§1)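 Herbicidal effect is scored visually on a 0-9 scale against an untreated control, three to four weeks after compounds are pipetted into the flood water (1.5 to 3 cm deep) over seeds planted in silt loam at 0.5 cm depth. Rates: about 0.0313 to 0.500 kg/ha.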

[1] = tested on: GLXMAW (Soybean, Williams); test: Preemergence herbicidal evaluation; assay type: in vivo, Glycine max, (L.) Merr. cv Williams; settings: rated 4-5 weeks after treatment
Outline: (§2)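 Seeds were planted in potting soil in cups, then sprayed preemergence with the test compound in aqueous acetone at about 0.0156 to 0.500 kg per hectare. Cups were kept under greenhouse conditions and visually rated 4–5 weeks after treatment on a 0–9 scale against an untreated control.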

GALAP (Galium) = test: Preemergence herbicidal evaluation; assay type: in vivo, Galium aparine; settings: rated 4-5 weeks after treatment
Outline: as §2

ABUTH (Velvetleaf) = test: Preemergence herbicidal evaluation; assay type: in vivo, Abutilon theophrasti; settings: rated 4-5 weeks after treatment
Outline: as §2

[2] = tested on: IPOHE (Morningglory, Ivyleaf); test: Postemergence herbicidal evaluation; assay type: in vivo, Ipomoea hederacea; settings: for herbicidal rating IPOHE: postemergence
Outline: (§3)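 Seedlings grown about two weeks were sprayed at 40 psi with compound dispersed in 50/50 acetone/water plus 0.5% TWEEN 20, at about 0.0156 to 0.500 kg/ha. Plants were kept in the greenhouse and scored 4–5 weeks later on a 0–9 visual scale against untreated controls.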

ZEAMX (Corn, Field) = test: Postemergence herbicidal evaluation; assay type: in vivo, Zea mays; settings: for herbicidal rating ZEAMX: postemergence
Outline: as §3

[3] = tested on: GLXMAW (Soybean, Williams); test: Postemergence herbicidal evaluation; assay type: in vivo, Glycine max, (L.) Merr. cv Williams; settings: for herbicidal rating GLXMAW: postemergence
Outline: as §3

SETVI (Foxtail, Green) = test: Preemergence herbicidal evaluation; assay type: in vivo, Setaria viridis; settings: rated 4-5 weeks after treatment
Outline: as §2

AMBEL (Ragweed, Common) [4] = test: Preemergence herbicidal evaluation; assay type: in vivo, Ambrosia artemisifolia; settings: rated 4-5 weeks after treatment
Outline: as §2

AMBEL (Ragweed, Common) [5] = test: Postemergence herbicidal evaluation; assay type: in vivo, Ambrosia artemisifolia; settings: for herbicidal rating AMBEL: postemergence
Outline: as §3

[6] = tested on: SAGPY (Arrowhead (Pygmaea)); test: Preemergence weed control under flooded paddy conditions; assay type: in vivo, Sagittaria pygmaea; settings: rated 3-4 weeks after treatment
Outline: as §1

CASOB (Sicklepod) = test: Preemergence herbicidal evaluation; assay type: in vivo, Cassia obtusifolia; settings: rated 4-5 weeks after treatment
Outline: as §2

ECHCG (Barnyardgrass) = test: Preemergence herbicidal evaluation; assay type: in vivo, Echinochloa crus-galli; settings: rated 4-5 weeks after treatment
Outline: as §2

## CCOC(=O)CN1C(=O)C(Cl)SC1=Nc1cc(-n2c(=O)cc(C(F)(F)F)n(C)c2=O)c(F)cc1Cl (stereo not shown) [Compound 126, Ethyl 5-chloro-2-{{2-chloro-5-[3,6-dihydro-3-methyl-2,6-dioxo-4-(trifluoromethyl)-1(2H)-pyrimidinyl]-4-fluorophenyl}imino}-4-oxo-3-thiazolidineacetate]
CYPSE (Flatsedge); 0.0313 kg/ha
  herbicidal effect rating, CYPSE: 0.0
CYPSE (Flatsedge); 0.0625 kg/ha
  herbicidal effect rating, CYPSE: 0.0
CYPSE (Flatsedge); 0.1250 kg/ha
  herbicidal effect rating, CYPSE: 0.0
CYPSE (Flatsedge); 0.2500 kg/ha
  herbicidal effect rating, CYPSE: 0.0
[1]; rate 0.0625 kg/ha
  Preemergence herbicidal rating GLXMAW: 0.0
[1]; rate 0.1250 kg/ha
  Preemergence herbicidal rating GLXMAW: 2.0
[1]; rate 0.2500 kg/ha
  Preemergence herbicidal rating GLXMAW: 3.0
[1]; rate 0.5000 kg/ha
  Preemergence herbicidal rating GLXMAW: 7.0
GALAP (Galium); rate 0.0625 kg/ha
  Preemergence herbicidal rating GALAP: 0.0
GALAP (Galium); rate 0.1250 kg/ha
  Preemergence herbicidal rating GALAP: 0.0
GALAP (Galium); rate 0.2500 kg/ha
  Preemergence herbicidal rating GALAP: 9.0
GALAP (Galium); rate 0.5000 kg/ha
  Preemergence herbicidal rating GALAP: 9.0
ABUTH (Velvetleaf); rate 0.0625 kg/ha
  Preemergence herbicidal rating ABUTH: 5.0
ABUTH (Velvetleaf); rate 0.1250 kg/ha
  Preemergence herbicidal rating ABUTH: 5.0
ABUTH (Velvetleaf); rate 0.2500 kg/ha
  Preemergence herbicidal rating ABUTH: 9.0
ABUTH (Velvetleaf); rate 0.5000 kg/ha
  Preemergence herbicidal rating ABUTH: 9.0
[2]; rate 0.0156 kg/ha
  herbicidal rating IPOHE: 9.0
[2]; rate 0.0313 kg/ha
  herbicidal rating IPOHE: 9.0
[2]; rate 0.0625 kg/ha
  herbicidal rating IPOHE: 9.0
[2]; rate 0.1250 kg/ha
  herbicidal rating IPOHE: 9.0
ZEAMX (Corn, Field); rate 0.0156 kg/ha
  herbicidal rating ZEAMX: 4.0
ZEAMX (Corn, Field); rate 0.0313 kg/ha
  herbicidal rating ZEAMX: 4.0
ZEAMX (Corn, Field); rate 0.0625 kg/ha
  herbicidal rating ZEAMX: 4.5
ZEAMX (Corn, Field); rate 0.1250 kg/ha
  herbicidal rating ZEAMX: 6.5
[3]; rate 0.0156 kg/ha
  herbicidal rating GLXMAW: 5.0
[3]; rate 0.0313 kg/ha
  herbicidal rating GLXMAW: 5.5
[3]; rate 0.0625 kg/ha
  herbicidal rating GLXMAW: 6.0
[3]; rate 0.1250 kg/ha
  herbicidal rating GLXMAW: 7.0
SETVI (Foxtail, Green); rate 0.0625 kg/ha
  Preemergence herbicidal rating SETVI: 0.0
SETVI (Foxtail, Green); rate 0.1250 kg/ha
  Preemergence herbicidal rating SETVI: 0.0
SETVI (Foxtail, Green); rate 0.2500 kg/ha
  Preemergence herbicidal rating SETVI: 3.0
SETVI (Foxtail, Green); rate 0.5000 kg/ha
  Preemergence herbicidal rating SETVI: 9.0
AMBEL (Ragweed, Common) [4]; rate 0.0625 kg/ha
  Preemergence herbicidal rating AMBEL: 0.0
AMBEL (Ragweed, Common) [4]; rate 0.1250 kg/ha
  Preemergence herbicidal rating AMBEL: 0.0
AMBEL (Ragweed, Common) [4]; rate 0.2500 kg/ha
  Preemergence herbicidal rating AMBEL: 4.0
AMBEL (Ragweed, Common) [4]; rate 0.5000 kg/ha
  Preemergence herbicidal rating AMBEL: 5.0
AMBEL (Ragweed, Common) [5]; rate 0.0156 kg/ha
  herbicidal rating AMBEL: 5.0
AMBEL (Ragweed, Common) [5]; rate 0.0313 kg/ha
  herbicidal rating AMBEL: 9.0
AMBEL (Ragweed, Common) [5]; rate 0.0625 kg/ha
  herbicidal rating AMBEL: 9.0
AMBEL (Ragweed, Common) [5]; rate 0.1250 kg/ha
  herbicidal rating AMBEL: 9.0
[6]; 0.0313 kg/ha
  herbicidal effect rating, SAGPY: 0.0
[6]; 0.0625 kg/ha
  herbicidal effect rating, SAGPY: 0.0
[6]; 0.1250 kg/ha
  herbicidal effect rating, SAGPY: 3.0
[6]; 0.2500 kg/ha
  herbicidal effect rating, SAGPY: 3.0
CASOB (Sicklepod); rate 0.0625 kg/ha
  Preemergence herbicidal rating CASOB: 0.0
CASOB (Sicklepod); rate 0.1250 kg/ha
  Preemergence herbicidal rating CASOB: 0.0
CASOB (Sicklepod); rate 0.2500 kg/ha
  Preemergence herbicidal rating CASOB: 0.0
CASOB (Sicklepod); rate 0.5000 kg/ha
  Preemergence herbicidal rating CASOB: 3.0
ECHCG (Barnyardgrass); rate 0.0625 kg/ha
  Preemergence herbicidal rating ECHCG: 0.0
ECHCG (Barnyardgrass); rate 0.1250 kg/ha
  Preemergence herbicidal rating ECHCG: 0.0
ECHCG (Barnyardgrass); rate 0.2500 kg/ha
  Preemergence herbicidal rating ECHCG: 0.0
ECHCG (Barnyardgrass); rate 0.5000 kg/ha
  Preemergence herbicidal rating ECHCG: 2.0

## CCCN1C(=O)CSC1=Nc1cc(-n2c(=O)cc(C(F)(F)F)n(C)c2=O)c(F)cc1Cl [Compound 171, 3-{4-Chloro-2-fluoro-5-[(4-oxo-3-propyl-2-thiazolidinylidene)amino]phenyl}-1-methyl-6-(trifluoromethyl)-2,4 (1H, 3H)-pyrimidinedione]
CYPSE (Flatsedge); 0.0313 kg/ha
  herbicidal effect rating, CYPSE: 9.0
CYPSE (Flatsedge); 0.0625 kg/ha
  herbicidal effect rating, CYPSE: 9.0
CYPSE (Flatsedge); 0.1250 kg/ha
  herbicidal effect rating, CYPSE: 9.0
CYPSE (Flatsedge); 0.2500 kg/ha
  herbicidal effect rating, CYPSE: 9.0
[1]; 0.0156 kg/ha
  Preemergence herbicidal rating GLXMAW: 1.0
[1]; 0.0313 kg/ha
  Preemergence herbicidal rating GLXMAW: 2.0
[1]; 0.0625 kg/ha
  Preemergence herbicidal rating GLXMAW: 6.0
[1]; 0.1250 kg/ha
  Preemergence herbicidal rating GLXMAW: 7.0
[1]; 0.2500 kg/ha
  Preemergence herbicidal rating GLXMAW: 8.0
GALAP (Galium); 0.0156 kg/ha
  Preemergence herbicidal rating GALAP: 0.0
GALAP (Galium); 0.0313 kg/ha
  Preemergence herbicidal rating GALAP: 0.0
GALAP (Galium); 0.1250 kg/ha
  Preemergence herbicidal rating GALAP: 5.0
GALAP (Galium); 0.2500 kg/ha
  Preemergence herbicidal rating GALAP: 6.0
ABUTH (Velvetleaf); 0.0156 kg/ha
  Preemergence herbicidal rating ABUTH: 9.0
ABUTH (Velvetleaf); 0.0313 kg/ha
  Preemergence herbicidal rating ABUTH: 9.0
ABUTH (Velvetleaf); 0.0625 kg/ha
  Preemergence herbicidal rating ABUTH: 9.0
ABUTH (Velvetleaf); 0.1250 kg/ha
  Preemergence herbicidal rating ABUTH: 9.0
ABUTH (Velvetleaf); 0.2500 kg/ha
  Preemergence herbicidal rating ABUTH: 9.0
[2]; Rate 0.0156 kg/ha
  Postemergence herbicidal rating IPOHE: 9.0
[2]; Rate 0.0313 kg/ha
  Postemergence herbicidal rating IPOHE: 9.0
[2]; rate 0.0625 kg/ha
  herbicidal rating IPOHE: 9.0
ZEAMX (Corn, Field); Rate 0.0156 kg/ha
  Postemergence herbicidal rating ZEAMX: 5.0
ZEAMX (Corn, Field); Rate 0.0313 kg/ha
  Postemergence herbicidal rating ZEAMX: 6.5
ZEAMX (Corn, Field); rate 0.0625 kg/ha
  herbicidal rating ZEAMX: 7.0
[3]; Rate 0.0156 kg/ha
  Postemergence herbicidal rating GLXMAW: 5.5
[3]; Rate 0.0313 kg/ha
  Postemergence herbicidal rating GLXMAW: 6.5
[3]; rate 0.0625 kg/ha
  herbicidal rating GLXMAW: 7.0
SETVI (Foxtail, Green); 0.0156 kg/ha
  Preemergence herbicidal rating SETVI: 7.0
SETVI (Foxtail, Green); 0.0313 kg/ha
  Preemergence herbicidal rating SETVI: 9.0
SETVI (Foxtail, Green); 0.0625 kg/ha
  Preemergence herbicidal rating SETVI: 9.0
SETVI (Foxtail, Green); 0.1250 kg/ha
  Preemergence herbicidal rating SETVI: 9.0
SETVI (Foxtail, Green); 0.2500 kg/ha
  Preemergence herbicidal rating SETVI: 9.0
AMBEL (Ragweed, Common) [4]; 0.0156 kg/ha
  Preemergence herbicidal rating AMBEL: 3.0
AMBEL (Ragweed, Common) [4]; 0.0313 kg/ha
  Preemergence herbicidal rating AMBEL: 4.0
AMBEL (Ragweed, Common) [4]; 0.0625 kg/ha
  Preemergence herbicidal rating AMBEL: 9.0
AMBEL (Ragweed, Common) [4]; 0.1250 kg/ha
  Preemergence herbicidal rating AMBEL: 9.0
AMBEL (Ragweed, Common) [4]; 0.2500 kg/ha
  Preemergence herbicidal rating AMBEL: 9.0
AMBEL (Ragweed, Common) [5]; Rate 0.0156 kg/ha
  Postemergence herbicidal rating AMBEL: 6.0
AMBEL (Ragweed, Common) [5]; Rate 0.0313 kg/ha
  Postemergence herbicidal rating AMBEL: 9.0
AMBEL (Ragweed, Common) [5]; rate 0.0625 kg/ha
  herbicidal rating AMBEL: 9.0
[6]; 0.0313 kg/ha
  herbicidal effect rating, SAGPY: 6.0
[6]; 0.0625 kg/ha
  herbicidal effect rating, SAGPY: 7.0
[6]; 0.1250 kg/ha
  herbicidal effect rating, SAGPY: 8.0
[6]; 0.2500 kg/ha
  herbicidal effect rating, SAGPY: 9.0
CASOB (Sicklepod); 0.0156 kg/ha
  Preemergence herbicidal rating CASOB: 4.0
CASOB (Sicklepod); 0.0313 kg/ha
  Preemergence herbicidal rating CASOB: 5.0
CASOB (Sicklepod); 0.0625 kg/ha
  Preemergence herbicidal rating CASOB: 2.0
CASOB (Sicklepod); 0.1250 kg/ha
  Preemergence herbicidal rating CASOB: 4.0
CASOB (Sicklepod); 0.2500 kg/ha
  Preemergence herbicidal rating CASOB: 9.0
ECHCG (Barnyardgrass); 0.0156 kg/ha
  Preemergence herbicidal rating ECHCG: 0.0
ECHCG (Barnyardgrass); 0.0313 kg/ha
  Preemergence herbicidal rating ECHCG: 4.0
ECHCG (Barnyardgrass); 0.0625 kg/ha
  Preemergence herbicidal rating ECHCG: 8.0
ECHCG (Barnyardgrass); 0.1250 kg/ha
  Preemergence herbicidal rating ECHCG: 9.0
ECHCG (Barnyardgrass); 0.2500 kg/ha
  Preemergence herbicidal rating ECHCG: 9.0
